{
  "source": "patent US10632127B2",
  "about": "“Targeted notch pathway inhibitors” (Hoffmann-La Roche Inc., priority 2015, dated 2020)",
  "key": {"[1]": {"test": "Pharmacokinetic assessment in male Wistar rats (i.v.)", "format": "in vivo, rat", "settings": "13a 1.6 mg/kg i.v."}, "[2]": {"test": "Pharmacokinetic assessment in C57BL/6 healthy wild-type mice (i.p.)", "format": "in vivo, mouse", "settings": "C57BL/6 mice; for concentration at 0.5 h / concentration at 4 h / concentration at 7 h: male, mouse, ip"}, "[3]": {"test": "Distribution in plasma, liver and kidney in the aristolochic acid mouse model (repeated i.p.)", "format": "in vivo", "settings": "for concentration at 13 h: male, C57BL/6, mouse, ip, 10 mg/kg", "protocol": "For PK evaluation, the compounds were administered i.p to male C57BL/6 mice in suspension (gelatine/saline 7.5%/0.62% in water) using an administration volume of 4 mL/kg. Blood samples were collected in tubes containing EDTA, plasma was separated by centrifugation and stored at −80° C. Liver and kidney samples (˜100 mg aliquots) were homogenized in three volumes of water using Precellys tissue homogenization tubes (precellys.com). 25 μL of each tissue homogenate was further diluted with 25 μL blank plasma to produce the final tissue homogenate for extraction. All samples were analyzed using protein precipitation followed by LC-MS/MS analysis. Briefly, 50 μL plasma or final tissue homogenate were mixed with 50 μL 0.5M HClO4/acetonitrile 9/1 (containing 200 ng/mL internal standard bosentan). Samples were stirred and 300 μL water was added followed by centrifugation at 5600 rpm (4° C., 10 min). 10 μL supernatant was analyzed by LC/MS analysis. Calibration standards in plasma were prepared the same way. The LC column and conditions used were: Phenomenex, Polar RP, 4 μm, 50×2.1 mm at 0.4 mL/min flow rate with a 3 min gradient from 95% solvent A to 95% solvent B (Solvent A: Water/ACN/HCOOH, 90:10:0.1+10 mM NH4 formate; Solvent B: Water/ACN/HCOOH, 10:90:0.1+10 mM NH4 formate). Mass spectrometric conditions were: Thermo TSQ Vantage with positive heated electrospray ionization in MS/MS mode. Compounds mass transitions monitored were m/z 320.7 to 119.9. PK parameters for all studies were calculated using Phoenix WinNonlin Software.\nAll experiments with animals were conducted in accordance with federal and local regulation at the respective study location. Kidney injury was induced by intraperitoneal (i.p). injection of aristolochic acid (AA, Sigma-Aldrich, 1×5 mg/kg) in 10 weeks old BALB/c male mice. The γ-secretase inhibitors prodrugs were diluted in NaCl 0.9% and administered i.p., starting one day before the injection of AA (day −1) and then twice daily until day 6 evening (n=5 mice/experimental group). […] The kidneys were cut in four fragments. One fragment was immediately frozen in liquid nitrogen, one fragment was included in OCT (Tissue-Tek, VWR International, Switzerland) and frozen, one fragment was frozen at −80° C. and one fragment was fixed in 4% paraformaldehyde and included in paraffin.\nTo investigate potential nephroprotective effects of Notch blockade using γ-secretase inhibition and to evaluate the effects of our enzyme-targeted prodrug strategy, we used the in vivo AA mouse model of acute renal tubular damage. […]\nPlasma and tissue concentrations of administered compound (Table 6A-C) and formed free γ-secretase inhibitor (8) (Table 6A) or amine-SecrI (11a) (Table 6B-C) were determined following 8-day repeated i.p. administration at 10 mg/kg b.i.d. (Table 6A) or 30 mg/kg b.i.d. […] Numbers in parentheses represent relative amounts with the exposure of 11a in kidney arbitrarily set at each time point to 100%. […] BQL=below quantifiable limit."}, "[4]": {"settings": "AA-exposed mice, 11a 10 mg/kg b.i.d. i.p. repeated, 13 h"}, "[5]": {"settings": "mice, 13a 30 mg/kg b.i.d. i.p. repeated, without AA (Table 6B), 13 h"}},
  "note": "Like-named read-outs stand apart in the source and are kept apart here.",
  "data": [
    {"smiles": "C[C@H]1Oc2ccc(F)cc2N(CCOC(=O)NCCN)C(=O)[C@H]1NC(=O)[C@@](C)(O)C(=O)NCC(F)(F)C(F)(F)F.Cl", "note": "[Compound 11a, 2-((2R,3S)-7-Fluoro-3-((S)-2-hydroxy-2-methyl-3-oxo-3-(2,2,3,3,3-pentafluoropropylamino)propanamido)-2-methyl-4-oxo-3,4-dihydrobenzo[b][1,4]oxazepin-5(2H)-yl)ethyl 2-aminoethylcarbamate hydrochloride]", "values": [
      {"measurement": "Plasma concentration of formed 11a", "setting": "[1]; 0.25 h", "value": "BQL"},
      {"measurement": "Plasma concentration of formed 11a", "setting": "[1]; 0.5 h", "value": "BQL"},
      {"measurement": "Plasma concentration of formed 11a", "setting": "[1]; 4 h", "value": "BQL"},
      {"measurement": "Liver concentration of formed 11a", "setting": "[1]; 7 h", "value": "BQL"},
      {"measurement": "Plasma concentration of formed 11a", "setting": "[1]; 7 h", "value": "BQL"},
      {"measurement": "hydrolysis of the linker in 11a to the free antagonist 8", "setting": "[2]; 10 mg/kg i.p.", "value": "never observed significant amounts"},
      {"measurement": "plasma exposure, in words", "setting": "[2]; 10 mg/kg i.p.", "value": "very low plasma exposure"},
      {"measurement": "exposure in liver compared to kidney", "setting": "[2]; 11a 10 mg/kg i.p.", "value": "approximately 4.5 fold"},
      {"measurement": "11a in kidney, relative amount (arbitrarily set to 100%)", "setting": "[2]; 11a 10 mg/kg i.p., 0.5 h", "value": "(100) %"},
      {"measurement": "11a in liver, relative amount (11a in kidney = 100%)", "setting": "[2]; 11a 10 mg/kg i.p., 0.5 h", "value": "(450) %"},
      {"measurement": "11a in kidney, relative amount (arbitrarily set to 100%)", "setting": "[2]; 11a 10 mg/kg i.p., 4 h", "value": "(100) %"},
      {"measurement": "11a in liver, relative amount (11a in kidney = 100%)", "setting": "[2]; 11a 10 mg/kg i.p., 4 h", "value": "(250) %"},
      {"measurement": "11a in kidney, relative amount (arbitrarily set to 100%)", "setting": "[2]; 11a 10 mg/kg i.p., 7 h", "value": "(100) %"},
      {"measurement": "11a in liver, relative amount (11a in kidney = 100%)", "setting": "[2]; 11a 10 mg/kg i.p., 7 h", "value": "(290) %"},
      {"measurement": "formed 11a in plasma at all time-points", "setting": "[2]; after 13a 10 mg/kg i.p.", "value": "below the limit of quantitation"},
      {"measurement": "Plasma concentration of formed 11a", "setting": "[2]; after 13a 10 mg/kg i.p., 0.5 h", "value": "BQL"},
      {"measurement": "Plasma concentration of formed 11a", "setting": "[2]; after 13a 10 mg/kg i.p., 4 h", "value": "BQL"},
      {"measurement": "Plasma concentration of formed 11a", "setting": "[2]; after 13a 10 mg/kg i.p., 7 h", "value": "BQL"},
      {"measurement": "Plasma concentration of formed 11a", "setting": "[2]; after 15b 10 mg/kg i.p., 7 h", "value": "BQL"},
      {"measurement": "concentration at 0.5 h", "setting": "[2]; kidney, 10 mg/kg i.p., 0.5 h, read-out: Kidney concentration of administered compound", "value": 15500, "unit": "ng/g"},
      {"measurement": "concentration at 4 h", "setting": "[2]; kidney, 10 mg/kg i.p., 4 h, read-out: Kidney concentration of administered compound", "value": 1200, "unit": "ng/g"},
      {"measurement": "concentration at 7 h", "setting": "[2]; kidney, 10 mg/kg i.p., 7 h, read-out: Kidney concentration of administered compound", "value": 420, "unit": "ng/g"},
      {"measurement": "concentration at 0.5 h", "setting": "[2]; liver, 10 mg/kg i.p., 0.5 h, read-out: Liver concentration of administered compound", "value": 70000, "unit": "ng/g"},
      {"measurement": "concentration at 4 h", "setting": "[2]; liver, 10 mg/kg i.p., 4 h, read-out: Liver concentration of administered compound", "value": 3000, "unit": "ng/g"},
      {"measurement": "concentration at 7 h", "setting": "[2]; liver, 10 mg/kg i.p., 7 h, read-out: Liver concentration of administered compound", "value": 1200, "unit": "ng/g"},
      {"measurement": "concentration at 0.5 h", "setting": "[2]; plasma, 10 mg/kg i.p., 0.5 h, read-out: Plasma concentration of administered compound", "value": 97.8, "unit": "ng/mL"},
      {"measurement": "concentration at 4 h", "setting": "[2]; plasma, 10 mg/kg i.p., 4 h, read-out: Plasma concentration of administered compound", "value": 1.32, "unit": "ng/mL"},
      {"measurement": "concentration at 7 h", "setting": "[2]; plasma, 10 mg/kg i.p., 7 h, read-out: Plasma concentration of administered compound", "value": 2.08, "unit": "ng/mL"},
      {"measurement": "exposure of amine-SecrI (11a) in the Ac-γ-Glu-SecrI (13a) group, in words", "setting": "[3]; 13a 30 mg/kg b.i.d., 12 h post administration, compared with 11a group", "value": "comparatively lower exposure"},
      {"measurement": "exposure of kidney and liver with amine-SecrI (11a), in words", "setting": "[3]; AA model, 11a 10 mg/kg b.i.d., 12 h post administration", "value": "high exposure of kidney and liver"},
      {"measurement": "11a in kidney, relative amount (arbitrarily set to 100%)", "setting": "[3]; [4]", "value": "(100) %"},
      {"measurement": "11a in liver, relative amount (11a in kidney = 100%)", "setting": "[3]; [4]", "value": 68, "unit": "%"},
      {"measurement": "Plasma concentration of formed 11a", "setting": "[3]; AA-exposed mice, 13a 30 mg/kg b.i.d. i.p. repeated, 13 h", "value": "BQL"},
      {"measurement": "concentration at 13 h", "setting": "[3]; kidney, AA-exposed mice, 11a 10 mg/kg b.i.d. i.p. repeated, 13 h, read-out: Kidney concentration of 11a", "value": 1830, "unit": "ng/g"},
      {"measurement": "concentration at 13 h", "setting": "[3]; liver, AA-exposed mice, 11a 10 mg/kg b.i.d. i.p. repeated, 13 h, read-out: Liver concentration of 11a", "value": 1250, "unit": "ng/g"},
      {"measurement": "concentration at 13 h", "setting": "[3]; plasma, AA-exposed mice, 11a 10 mg/kg b.i.d. i.p. repeated, 13 h, read-out: Plasma concentration of 11a", "value": 7.2, "unit": "ng/mL"},
      {"measurement": "Liver concentration of formed 11a", "setting": "[3]; [5]", "value": "BQL"},
      {"measurement": "Plasma concentration of formed 11a", "setting": "[3]; [5]", "value": "BQL"}
    ]}
  ]
}
